Results from ChEMBL document CHEMBL1201862, “PubChem BioAssay data set” (2004).
Active and inactive are the calls of the source.

Key:
[1] = target: Photoreceptor-specific nuclear receptor (Homo sapiens, UniProt Q9Y5X4); assay type: functional, cell-based;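 also: CHO-S cells with Gal4-NCOR and VP16-NR2E3 two-hybrid luciferase reporter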
Paired box protein Pax-8 = Paired box protein Pax-8 (Homo sapiens, UniProt Q06710); experiment: PAX8 transcriptional activity inhibition in RMG-I – RMG-I cells, luciferase, cherry-pick, dose response (AID 687027); assay type: functional, cell-based;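 also: luciferase reporter driven by Pax8 target thyroperoxidase promoter measured by SteadyGlo luminescence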
Sequence of Paired box protein Pax-8 (Q06710 whole entry): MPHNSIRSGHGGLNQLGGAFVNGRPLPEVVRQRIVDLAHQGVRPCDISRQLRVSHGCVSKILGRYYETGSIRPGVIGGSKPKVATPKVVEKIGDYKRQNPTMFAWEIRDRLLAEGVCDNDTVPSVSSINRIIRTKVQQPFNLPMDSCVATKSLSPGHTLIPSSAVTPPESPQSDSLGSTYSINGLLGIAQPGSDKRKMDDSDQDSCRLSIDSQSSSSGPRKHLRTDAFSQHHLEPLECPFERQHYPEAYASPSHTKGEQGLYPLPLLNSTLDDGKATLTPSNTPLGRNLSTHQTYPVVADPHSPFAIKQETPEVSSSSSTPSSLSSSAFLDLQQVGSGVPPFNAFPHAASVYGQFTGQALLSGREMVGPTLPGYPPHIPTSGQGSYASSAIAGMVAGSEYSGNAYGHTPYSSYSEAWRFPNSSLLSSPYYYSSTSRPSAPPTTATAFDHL

[2] = alpha-synuclein stem-loop luciferase translation blockers – H4 neuroglioma cells, luminescence, confirmation (AID 1988); assay type: functional, cell-based
[3] = target: T1, Sentrin-specific protease 8 (Homo sapiens, UniProt Q96LD8); assay type: functional
T1 sequence (Q96LD8 whole entry): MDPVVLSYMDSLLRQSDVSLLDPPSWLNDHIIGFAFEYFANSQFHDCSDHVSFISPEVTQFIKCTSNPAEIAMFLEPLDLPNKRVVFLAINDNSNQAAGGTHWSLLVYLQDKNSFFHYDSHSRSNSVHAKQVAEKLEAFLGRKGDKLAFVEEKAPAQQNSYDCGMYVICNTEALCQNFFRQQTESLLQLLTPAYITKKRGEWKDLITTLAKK

[4] = target: T2, Sentrin-specific protease 6 (Homo sapiens, UniProt Q9GZR1); assay type: functional;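 also: Luminescence-based dose-response confirmatory assay of SENP6 inhibition, following up an ultra-high-throughput screen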
T2 sequence (Q9GZR1 whole entry): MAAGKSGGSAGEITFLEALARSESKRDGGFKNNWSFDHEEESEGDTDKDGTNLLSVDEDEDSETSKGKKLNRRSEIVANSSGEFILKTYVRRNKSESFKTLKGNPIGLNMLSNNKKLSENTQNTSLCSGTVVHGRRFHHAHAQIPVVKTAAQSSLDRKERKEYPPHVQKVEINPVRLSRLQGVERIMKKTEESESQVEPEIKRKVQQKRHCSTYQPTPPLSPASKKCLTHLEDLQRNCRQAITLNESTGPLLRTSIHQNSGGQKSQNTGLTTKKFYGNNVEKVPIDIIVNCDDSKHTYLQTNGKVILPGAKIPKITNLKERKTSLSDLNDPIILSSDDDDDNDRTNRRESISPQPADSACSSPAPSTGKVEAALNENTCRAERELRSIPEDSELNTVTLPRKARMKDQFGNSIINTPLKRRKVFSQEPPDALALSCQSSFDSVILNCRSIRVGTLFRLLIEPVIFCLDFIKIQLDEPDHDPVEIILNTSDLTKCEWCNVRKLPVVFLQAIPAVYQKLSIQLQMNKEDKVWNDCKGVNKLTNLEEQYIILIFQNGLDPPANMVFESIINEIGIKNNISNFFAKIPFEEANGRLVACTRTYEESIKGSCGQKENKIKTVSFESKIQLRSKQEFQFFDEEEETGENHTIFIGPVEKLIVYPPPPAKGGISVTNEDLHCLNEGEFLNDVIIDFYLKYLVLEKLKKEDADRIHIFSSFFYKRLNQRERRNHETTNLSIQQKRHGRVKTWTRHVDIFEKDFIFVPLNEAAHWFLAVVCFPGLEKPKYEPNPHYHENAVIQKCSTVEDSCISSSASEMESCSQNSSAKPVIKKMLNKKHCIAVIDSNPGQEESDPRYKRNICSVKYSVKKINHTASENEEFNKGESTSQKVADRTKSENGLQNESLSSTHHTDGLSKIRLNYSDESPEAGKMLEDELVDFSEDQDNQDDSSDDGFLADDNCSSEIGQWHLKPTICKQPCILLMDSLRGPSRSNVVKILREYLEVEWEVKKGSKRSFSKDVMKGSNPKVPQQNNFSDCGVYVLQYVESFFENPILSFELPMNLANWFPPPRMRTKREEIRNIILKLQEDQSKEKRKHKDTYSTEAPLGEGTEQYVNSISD

[5] = target: Serine/threonine-protein phosphatase (Homo sapiens, UniProt Q9BPW0); experiment: inhibition of protein phosphatase 5 activity – biochemical, fluorescence, dose response (AID 2395)
Sequence of Serine/threonine-protein phosphatase (Q9BPW0 whole entry): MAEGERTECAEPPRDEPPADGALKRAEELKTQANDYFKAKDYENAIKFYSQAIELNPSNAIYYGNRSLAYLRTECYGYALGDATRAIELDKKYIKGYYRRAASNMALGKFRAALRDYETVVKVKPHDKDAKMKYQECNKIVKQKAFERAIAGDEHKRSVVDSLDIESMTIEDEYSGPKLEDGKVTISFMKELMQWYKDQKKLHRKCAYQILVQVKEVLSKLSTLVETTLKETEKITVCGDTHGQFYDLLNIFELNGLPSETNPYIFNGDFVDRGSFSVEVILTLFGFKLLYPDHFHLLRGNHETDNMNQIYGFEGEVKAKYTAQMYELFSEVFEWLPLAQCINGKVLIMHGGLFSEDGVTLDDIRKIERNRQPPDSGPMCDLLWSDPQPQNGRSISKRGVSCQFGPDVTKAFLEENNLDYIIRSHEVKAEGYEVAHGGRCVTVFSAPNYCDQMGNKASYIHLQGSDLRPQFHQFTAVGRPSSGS

[6] = target: T3, Sentrin-specific protease 7 (Homo sapiens, UniProt Q9BQF6); assay type: functional;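 also: Luminescence-based dose-response confirmation of ultra-high-throughput screening hits, measuring inhibition of SENP7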
T3 sequence (Q9BQF6 whole entry): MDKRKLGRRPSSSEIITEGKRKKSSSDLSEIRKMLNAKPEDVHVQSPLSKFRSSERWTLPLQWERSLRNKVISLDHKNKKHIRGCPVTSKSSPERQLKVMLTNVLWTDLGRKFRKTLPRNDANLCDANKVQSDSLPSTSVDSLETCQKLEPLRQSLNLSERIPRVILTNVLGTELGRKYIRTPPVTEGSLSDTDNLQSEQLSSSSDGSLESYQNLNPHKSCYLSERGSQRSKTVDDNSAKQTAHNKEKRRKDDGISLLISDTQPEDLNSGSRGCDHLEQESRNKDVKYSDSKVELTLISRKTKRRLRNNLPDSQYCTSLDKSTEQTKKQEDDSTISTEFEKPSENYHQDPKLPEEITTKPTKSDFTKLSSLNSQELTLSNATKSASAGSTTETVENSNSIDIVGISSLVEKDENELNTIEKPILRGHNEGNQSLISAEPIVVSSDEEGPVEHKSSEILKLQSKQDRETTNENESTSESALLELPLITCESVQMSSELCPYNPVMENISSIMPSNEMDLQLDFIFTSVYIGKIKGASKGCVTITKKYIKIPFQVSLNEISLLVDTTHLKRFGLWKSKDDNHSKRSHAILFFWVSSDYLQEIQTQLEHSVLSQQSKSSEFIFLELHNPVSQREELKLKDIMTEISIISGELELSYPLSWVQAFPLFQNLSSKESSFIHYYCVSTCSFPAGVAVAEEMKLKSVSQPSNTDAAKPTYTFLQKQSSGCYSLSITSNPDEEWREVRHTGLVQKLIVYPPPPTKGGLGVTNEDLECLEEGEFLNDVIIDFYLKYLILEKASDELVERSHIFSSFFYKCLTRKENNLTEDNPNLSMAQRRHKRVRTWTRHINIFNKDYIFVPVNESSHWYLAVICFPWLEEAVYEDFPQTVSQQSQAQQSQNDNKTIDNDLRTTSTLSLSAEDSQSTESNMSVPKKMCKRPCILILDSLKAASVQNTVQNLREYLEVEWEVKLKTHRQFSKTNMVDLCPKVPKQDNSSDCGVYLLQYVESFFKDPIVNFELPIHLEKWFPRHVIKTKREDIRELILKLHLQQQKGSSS

[7] = target: Small ubiquitin-related modifier 2 (Homo sapiens, UniProt P61956); experiment: SUMO2 binding disruption by SUMO1 hits – biochemical, FRET, human SUMO2, uHTS hits, selectivity assay for SUMO1 interaction inhibitor project, dose response (AID 624384); assay type: functional; conditions: read-out: IC50_Mean
Sequence of Small ubiquitin-related modifier 2 (P61956 whole entry): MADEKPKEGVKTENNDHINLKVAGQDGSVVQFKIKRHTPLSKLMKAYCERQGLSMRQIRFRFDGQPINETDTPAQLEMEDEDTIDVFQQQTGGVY

HeLa = experiment: viability loss in HeLa cells – cell-based, 24 h, cherry-picked samples, cytotoxicity control, dose response (AID 504726); assay type: functional; conditions: Homo sapiens;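 also: potency for cytotoxicity as loss of luminescence signal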
[8] = target: Dual specificity protein phosphatase 3 (Homo sapiens, UniProt P51452); experiment: SAR VHR1 absorbance Assay for In Vitro dose response studies. [Related pubchem assays (depositor defined):AID1654, AID1661, AID1878, AID1992, AID2004]
Sequence of Dual specificity protein phosphatase 3 (P51452 whole entry): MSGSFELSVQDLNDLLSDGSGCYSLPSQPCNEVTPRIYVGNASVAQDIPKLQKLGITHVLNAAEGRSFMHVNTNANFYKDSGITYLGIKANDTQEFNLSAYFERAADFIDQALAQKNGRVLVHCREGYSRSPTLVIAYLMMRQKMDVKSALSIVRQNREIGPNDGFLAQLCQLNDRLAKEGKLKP

Sequence of Photoreceptor-specific nuclear receptor (Q9Y5X4 whole entry, the tested form may be a part): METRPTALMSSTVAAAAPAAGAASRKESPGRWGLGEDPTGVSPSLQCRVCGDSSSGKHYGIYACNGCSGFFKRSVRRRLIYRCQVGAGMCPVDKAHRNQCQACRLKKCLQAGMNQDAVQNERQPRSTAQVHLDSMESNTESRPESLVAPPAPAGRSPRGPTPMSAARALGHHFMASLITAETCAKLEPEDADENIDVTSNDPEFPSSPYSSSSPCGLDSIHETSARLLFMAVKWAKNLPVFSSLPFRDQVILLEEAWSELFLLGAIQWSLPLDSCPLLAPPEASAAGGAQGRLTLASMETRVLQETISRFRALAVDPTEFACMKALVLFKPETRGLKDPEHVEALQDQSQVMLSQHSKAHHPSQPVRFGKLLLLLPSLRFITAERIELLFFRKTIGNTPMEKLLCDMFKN

O=C1c2ccccc2C(=O)c2[nH]c(O)nc21
IC50 [1]: 4.48 µM (active) | AC50 (Paired box protein Pax-8): 5.72 µM (active) | EC50 [2]: 4.26 µM (active)

CCOC(=O)C1=C(C)OC2(O)c3ccccc3C(=O)C12O (stereo not given)
IC50 [3]: 0.428 µM (active) | IC50 [4]: 2.7 µM (active) | IC50 [5]: > 67 µM (not active) | IC50 [6]: 3.27 µM (active)

NS(=O)(=O)c1cc(C(=O)NC2CCSc3ccccc32)ccc1Cl (stereo not given)
IC50 [7]: 1.75 µM (active) | AC50 (HeLa): > 350 µM (inactive) | IC50 [8]: 0.121 µM (active)
